Experimental data reported in ChEMBL document CHEMBL6087404, “Naphthoindole-2-carboxamides as a lipophilic chemotype of hetarene-anthraquinones potent against P-gp resistant tumor cells” (Eur J Med Chem, 2025).

Experiments:
[1] = Drug uptake in cytoplasmic membrane of human HCT-116 cells at 3 uM incubated for 1 hr by confocal microscopy; assay type: ADME, cell membranes, Cytoplasm membrane; conditions: hct-116, 1 h
[2] = system: K562; experiment: Effect on cell cycle distribution in human K562 cells assessed as cells with fragmented DNA at sub-G1 phase at 1 uM incubated for 24 hrs by PI staining based flow cytometry (reference value: 3 %); assay type: functional
[3] = Drug uptake in verapamil-treated human K562/4 cells at 2 uM incubated for 3 to 120 hrs by flow cytometry relative to wild-type culture; assay type: ADME, cell-based; conditions: k562/4, 2 µM, time 3-120 hrs
[4] = system: K562; experiment: Induction of apoptosis in human K562 cells assessed as early apoptotic cells at 1 uM incubated for 24 hrs by Annexin V-FITC/PI staining based flow cytometry (reference value: 0.8 %); assay type: functional
[5] = Drug uptake in P-gp+ human K562/4 cells at 2 uM incubated for 3 to 120 hrs by flow cytometry; assay type: ADME, cell-based; conditions: k562/4, 2 µM, time 3-120 hrs
[6] = system: K562/4; experiment: Effect on cell cycle distribution in human K562/4 cells assessed as cells with fragmented DNA at sub-G1 phase at 1 uM incubated for 72 hrs by PI staining based flow cytometry (reference value: 4 %); assay type: functional
[7] = Drug uptake in human HCT-116 cells at 3 uM incubated for 10 mins by confocal microscopy; assay type: ADME, cell-based; conditions: hct-116, 10 min
[8] = system: K562; experiment: Effect on cell cycle distribution in human K562 cells assessed as cells with fragmented DNA at sub-G1 phase at 0.75 uM incubated for 24 hrs by PI staining based flow cytometry (reference value: 3 %); assay type: functional
[9] = Drug uptake in P-gp+ human K562i/S9 cells at 2 uM incubated for 3 to 120 hrs by flow cytometry; assay type: ADME, cell-based; conditions: k562i/s9, 2 µM, time 3-120 hrs
[10] = Drug uptake in human K562/4 cells assessed as fold increase at 2 uM incubated for 3 to 120 hrs by flow cytometry relative to LCTA-2640; assay type: ADME, cell-based; conditions: k562/4, 2 µM, time 3-120 hrs
[11] = system: K562/4; experiment: Effect on cell cycle distribution in human K562/4 cells assessed as cells with fragmented DNA at sub-G1 phase at 0.75 uM incubated for 72 hrs by PI staining based flow cytometry (reference value: 4 %); assay type: functional
[12] = system: K562/4; experiment: Induction of apoptosis in human K562/4 cells assessed as viable cells at 1 uM incubated for 48 hrs by Annexin V-FITC/PI staining based flow cytometry (reference value: 86 %); assay type: functional; conditions: read-out: Activity
[13] = system: A549; experiment: Antiproliferative activity against human A549 cells incubated for 72 hrs by MTT assay; assay type: functional, cell-based; conditions: A549, 72 h
[14] = system: K562/4; experiment: Induction of apoptosis in human K562/4 cells assessed as viable cells at 1 uM incubated for 24 hrs by Annexin V-FITC/PI staining based flow cytometry (reference value: 10.8 %); assay type: functional; conditions: read-out: Activity
[15] = system: K562/4; experiment: Induction of apoptosis in human K562/4 cells assessed as late apoptotic cells at 1 uM incubated for 24 hrs by Annexin V-FITC/PI staining based flow cytometry (reference value: 2.5 %); assay type: functional
[16] = system: K562; experiment: Effect on cell cycle distribution in human K562 cells assessed as cells with fragmented DNA at sub-G1 phase at 1 uM incubated for 72 hrs by PI staining based flow cytometry (reference value: 3 %); assay type: functional
[17] = system: K562; experiment: Effect on cell cycle distribution in human K562 cells assessed as cells with fragmented DNA at sub-G1 phase at 0.75 uM incubated for 48 hrs by PI staining based flow cytometry (reference value: 3 %); assay type: functional
[18] = Antiproliferative activity against hFB-hTERT6 cells incubated for 72 hrs by MTT assay; assay type: toxicity, cell-based; conditions: human
[19] = Drug uptake in P-gp+ human […] cells at 3 uM incubated for 10 mins by confocal microscopy; assay type: ADME, cell-based; conditions: k562/4, 10 min
[20] = Drug uptake in mitochondria of human HCT-116 cells at 3 uM incubated for 1 hr by MitoTracker Red FM dye based confocal microscopy; assay type: ADME; conditions: hct-116, 1 h
[21] = system: K562; experiment: Induction of apoptosis in human K562 cells assessed as necrotic cells at 1 uM incubated for 48 hrs by Annexin V-FITC/PI staining based flow cytometry (reference value: 10.8 %); assay type: functional

Drug uptake [1]: Not_active
Drug uptake [3]: 80%
Drug uptake [5]: Active
Drug uptake [7]: Active
Drug uptake [9]: Active
fold change (FC) [10]: <= 2
IC50 [13]: 7.7 µM
Drug uptake [19]: Active
Drug uptake [20]: Active
SMILES: CS(=O)(=O)O.N[C@H]1CCN(C(=O)c2cc3c(O)c4c(c(O)c3[nH]2)C(=O)c2ccccc2C4=O)C1
Activity [2]: 42%
Activity [4]: 0.2%
Activity [6]: 89%
Activity [8]: 21%
Activity [11]: 5%
viability at 1 µM [12]: 3.4%
viability at 1 µM [14]: 48.9%
Activity [15]: 20.4%
Activity [16]: 97%
Activity [17]: 26%
IC50 at 72 h [18]: 4.2 µM
Activity [21]: 43.7%
